According to ChEMBL document CHEMBL4229516, “Design, synthesis and biological evaluation of a series of novel GPR40 agonists containing nitrogen heterocyclic rings” (Bioorg Med Chem Lett, 2018):
Values belong to the compound of their own block, whether it stands above or below them.

Assays:
[1] = molecular target: T1, CYP1A2 (Homo sapiens, UniProt P05177); assay: Inhibition of CYP1A2 in human liver microsomes at 10 uM using phenacetin as substrate by LC-MS/MS analysis relative to control; assay type: ADME; details: probe phenacetin
T1 sequence (P05177 whole entry): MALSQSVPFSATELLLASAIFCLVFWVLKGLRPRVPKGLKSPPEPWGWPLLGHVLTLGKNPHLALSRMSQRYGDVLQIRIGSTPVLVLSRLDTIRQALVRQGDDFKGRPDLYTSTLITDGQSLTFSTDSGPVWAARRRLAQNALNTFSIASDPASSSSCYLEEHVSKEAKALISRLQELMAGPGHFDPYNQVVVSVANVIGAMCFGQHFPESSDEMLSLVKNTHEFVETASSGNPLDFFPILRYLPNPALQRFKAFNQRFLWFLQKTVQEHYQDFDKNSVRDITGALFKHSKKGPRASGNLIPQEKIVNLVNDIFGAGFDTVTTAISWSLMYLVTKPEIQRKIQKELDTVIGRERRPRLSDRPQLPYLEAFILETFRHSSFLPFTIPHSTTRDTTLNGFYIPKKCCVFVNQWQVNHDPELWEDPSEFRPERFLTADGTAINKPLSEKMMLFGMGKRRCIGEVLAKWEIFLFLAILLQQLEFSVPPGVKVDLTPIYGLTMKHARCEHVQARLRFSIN

[2] = molecular target: T2, Free fatty acid receptor 1 (Homo sapiens, UniProt O14842); assay: Transactivation of human GPR40 expressed in HEK293 cells at 10 uM after 24 hrs by Elk-Gal4 luciferase reporter assay relative to TAK-875; assay type: functional, cell-based
[3] = molecular target: T3, CYP2D6 (Homo sapiens, UniProt P10635); assay: Inhibition of CYP2D6 in human liver microsomes at 2 uM using dextromethorphan as substrate by LC-MS/MS analysis relative to control; details: probe dextromethorphan
[4] = molecular target: T2, Free fatty acid receptor 1; assay: Transactivation of human GPR40 expressed in HEK293 cells after 24 hrs by Elk-Gal4 luciferase reporter assay; assay type: functional, cell-based
[5] = molecular target: T3, CYP2D6; assay: Inhibition of CYP2D6 in human liver microsomes at 5 uM using dextromethorphan as substrate by LC-MS/MS analysis relative to control; assay type: ADME; details: probe dextromethorphan
[6] = system: Mus musculus; assay: Antidiabetic activity in ICR mouse assessed as blood glucose levels at 50 mg/kg, po administered 1 hr prior to glucose challenge measured at 120 mins post glucose challenge (reference value: 53.7 +/- 9.9 mg/dl); assay type: functional
[7] = system: Mus musculus; assay: Antidiabetic activity in ICR mouse assessed as blood glucose levels at 50 mg/kg, po administered 1 hr prior to glucose challenge measured at 30 mins post glucose challenge (reference value: 227.6 +/- 18.7 mg/dl); assay type: functional
[8] = molecular target: CYP2C9 (Homo sapiens, UniProt P11712); assay: Inhibition of CYP2C9 in human liver microsomes at 5 uM using diclofenac sodium as substrate by LC-MS/MS analysis relative to control; assay type: ADME; details: probe diclofenac sodium
[9] = system: Mus musculus; assay: Antidiabetic activity in ICR mouse assessed as blood glucose AUC at 50 mg/kg, po administered 1 hr prior to glucose challenge measured after 120 mins post glucose challenge (reference value: 290 +/ 23.5 mg.hr/dl); assay type: functional, organism-based; design: dose 50 mg/kg, time < 2 hr
[10] = system: Mus musculus; assay: Antidiabetic activity in ICR mouse assessed as blood glucose levels at 50 mg/kg, po administered 1 hr prior to glucose challenge measured at 60 mins post glucose challenge (reference value: 175.8 +/- 25 mg/dl); assay type: functional
[11] = molecular target: T1, CYP1A2; assay: Inhibition of CYP1A2 in human liver microsomes at 5 uM using phenacetin as substrate by LC-MS/MS analysis relative to control; assay type: ADME; details: probe phenacetin
[12] = Induction of 16.8 mM glucose-stimulated insulin secretion in ICR mouse primary pancreatic islets assessed per protein at 10 uM after 1 hr by ELISA (reference value: 1.8 +/- 0.6 ng/ml); assay type: functional, Pancreatic islet
[13] = molecular target: CYP3A4 (Homo sapiens, UniProt P08684); assay: Inhibition of CYP3A4 in human liver microsomes at 5 uM using midazolam as substrate by LC-MS/MS analysis relative to control; assay type: ADME; details: probe midazolam
[14] = system: Mus musculus; assay: Antidiabetic activity in ICR mouse assessed as reduction of blood glucose AUC at 50 mg/kg, po administered 1 hr prior to glucose challenge measured after 120 mins post glucose challenge relative to control; assay type: functional; design: scale not given: the % may be the effect or the level left

Chain of CYP2C9 (P11712 whole entry): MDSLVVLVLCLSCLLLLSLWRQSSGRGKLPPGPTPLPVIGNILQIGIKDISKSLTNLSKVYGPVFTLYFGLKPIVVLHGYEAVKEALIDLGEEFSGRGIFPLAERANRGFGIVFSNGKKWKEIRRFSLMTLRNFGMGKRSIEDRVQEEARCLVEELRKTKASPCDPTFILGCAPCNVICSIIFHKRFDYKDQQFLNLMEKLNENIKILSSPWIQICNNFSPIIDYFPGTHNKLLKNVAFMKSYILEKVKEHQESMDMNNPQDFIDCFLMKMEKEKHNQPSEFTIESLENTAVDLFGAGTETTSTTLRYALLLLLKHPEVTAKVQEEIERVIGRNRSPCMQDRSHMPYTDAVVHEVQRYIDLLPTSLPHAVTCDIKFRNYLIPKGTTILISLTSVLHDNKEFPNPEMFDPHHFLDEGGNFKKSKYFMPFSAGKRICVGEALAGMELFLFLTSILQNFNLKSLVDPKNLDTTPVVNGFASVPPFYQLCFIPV
Chain of CYP3A4 (P08684 whole entry): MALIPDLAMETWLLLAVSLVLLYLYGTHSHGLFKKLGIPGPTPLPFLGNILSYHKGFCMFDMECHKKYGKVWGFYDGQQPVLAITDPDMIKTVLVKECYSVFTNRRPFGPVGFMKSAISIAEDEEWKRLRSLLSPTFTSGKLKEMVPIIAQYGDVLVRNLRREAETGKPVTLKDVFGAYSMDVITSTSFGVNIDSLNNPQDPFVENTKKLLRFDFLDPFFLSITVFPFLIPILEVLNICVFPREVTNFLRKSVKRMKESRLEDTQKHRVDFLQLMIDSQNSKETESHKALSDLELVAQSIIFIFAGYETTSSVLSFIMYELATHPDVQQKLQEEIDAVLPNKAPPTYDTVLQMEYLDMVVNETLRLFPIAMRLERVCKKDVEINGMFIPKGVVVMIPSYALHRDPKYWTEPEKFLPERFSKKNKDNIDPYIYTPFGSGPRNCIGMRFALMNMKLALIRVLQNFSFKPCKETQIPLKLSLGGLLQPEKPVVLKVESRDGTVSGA
T3 sequence (P10635 whole entry, the tested form may be a part): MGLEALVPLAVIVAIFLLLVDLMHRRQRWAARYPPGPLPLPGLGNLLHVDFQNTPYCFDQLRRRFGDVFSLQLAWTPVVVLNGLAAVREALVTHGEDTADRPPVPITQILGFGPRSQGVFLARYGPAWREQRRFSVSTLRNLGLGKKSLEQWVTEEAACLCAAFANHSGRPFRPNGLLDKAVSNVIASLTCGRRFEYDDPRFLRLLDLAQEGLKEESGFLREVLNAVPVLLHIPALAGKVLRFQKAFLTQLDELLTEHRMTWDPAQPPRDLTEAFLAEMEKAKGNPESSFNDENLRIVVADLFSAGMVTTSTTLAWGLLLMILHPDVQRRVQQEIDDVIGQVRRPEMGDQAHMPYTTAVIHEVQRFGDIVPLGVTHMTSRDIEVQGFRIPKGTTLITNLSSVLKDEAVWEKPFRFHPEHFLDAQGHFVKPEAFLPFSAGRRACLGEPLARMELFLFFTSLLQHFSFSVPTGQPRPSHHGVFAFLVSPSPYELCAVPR
T2 sequence (O14842 whole entry, the tested form may be a part): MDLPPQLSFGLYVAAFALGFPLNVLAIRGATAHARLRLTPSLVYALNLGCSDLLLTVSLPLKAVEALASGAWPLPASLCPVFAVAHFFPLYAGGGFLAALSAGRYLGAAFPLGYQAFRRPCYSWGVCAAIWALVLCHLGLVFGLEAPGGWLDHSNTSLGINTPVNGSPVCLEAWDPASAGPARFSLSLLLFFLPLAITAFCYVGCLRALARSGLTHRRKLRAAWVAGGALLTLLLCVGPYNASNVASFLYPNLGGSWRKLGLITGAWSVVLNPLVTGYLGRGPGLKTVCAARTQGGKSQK

inhibition at 10 µM [1]: 71.4%
SMILES: Cc1nc2c([nH]1)c(=O)n(C)c(=O)n2Cc1ccco1 [FURAFYLLINE]

Activity [2]: 4.6%
SMILES: O=C(O)COc1ccc(OCc2cccc(-c3ccc4c(c3)CN(Cc3ccccc3)CC4)c2)cc1

SMILES: C=C[C@H]1C[N@@]2CC[C@H]1C[C@@H]2[C@@H](O)c1ccnc2ccc(OC)cc12 [QUINIDINE]
inhibition at 2 µM [3]: 93.3%

Activity [2]: 23.8%
SMILES: CC(C)(CC(=O)O)c1ccc(OCc2cccc(-c3ccc4c(c3)CN(Cc3ccccc3)C4)c2)cc1

Activity [2]: 18.9%
SMILES: O=C(O)COc1ccc(OCc2cccc(-c3ccc4c(c3)CN(Cc3ccccc3)C4)c2)cc1

EC50 [4]: 800 nM
inhibition at 5 µM [5]: 39.5%
inhibition at 5 µM [8]: 3.94%
inhibition at 5 µM [11]: 25.7%
inhibition at 5 µM [13]: 27.6%
Activity [2]: 108%
SMILES: Cl.O=C(O)C[C@@H]1COc2cc(OCc3cccc(-c4ccc5c(c4)CN(Cc4ccccc4)CC5)c3)ccc21
Activity [6]: 58 mg/dL
Activity [7]: 214.1 mg/dL
AUC [9]: 2.81e+06 ng·h/mL
Activity [10]: 172.7 mg/dL
Activity [12]: 2.8 ng/mL

Activity [2]: 28.8%
SMILES: O=C(O)COc1ccc(OCc2cccc(-c3cccc4c3CCN(Cc3ccccc3)C4)c2)cc1

Activity [2]: 58.6%
SMILES: CC(C)(CC(=O)O)c1ccc(OCc2cccc(-c3ccc4c(c3)CCN(Cc3ccccc3)C4)c2)cc1

Activity [2]: 43.6%
SMILES: CC(=O)N1CCc2c(cccc2-c2cccc(COc3ccc4c(c3)OC[C@H]4CC(=O)O)c2)C1

Activity [2]: 31.6%
SMILES: O=C(O)C[C@@H]1COc2cc(OCc3cccc(-c4ccc5c(c4)CCN(C(=O)Cc4ccccc4)C5)c3)ccc21

inhibition at 5 µM [8]: 94.9%
SMILES: Nc1ccc(S(=O)(=O)Nc2ccnn2-c2ccccc2)cc1 [SULFAPHENAZOLE]

Activity [2]: 39.8%
SMILES: O=C(O)C[C@@H]1COc2cc(OCc3cccc(-c4ccc5c(c4)CCN(C(=O)c4ccccc4)C5)c3)ccc21

Activity [2]: 34.8%
SMILES: O=C(O)C[C@@H]1COc2cc(OCc3cccc(-c4ccc5c(c4)CN(C(=O)Cc4ccccc4)C5)c3)ccc21

inhibition at 5 µM [5]: 23.2%
inhibition at 5 µM [8]: 21%
inhibition at 5 µM [11]: 28%
inhibition at 5 µM [13]: 34%
SMILES: Cc1cc(OCCCS(C)(=O)=O)cc(C)c1-c1cccc(COc2ccc3c(c2)OC[C@H]3CC(=O)O)c1
Activity [6]: 49 mg/dL
Activity [7]: 155.2 mg/dL
AUC [9]: 2.07e+06 ng·h/mL
Activity [10]: 120 mg/dL
Activity [12]: 2.1 ng/mL

Activity [2]: 60.8%
SMILES: O=C(O)C[C@@H]1COc2cc(OCc3cccc(-c4ccc5c(c4)CN(C(=O)c4ccccc4)C5)c3)ccc21

Activity [2]: 36.8%
SMILES: CC(=O)N1Cc2ccc(-c3cccc(COc4ccc5c(c4)OC[C@H]5CC(=O)O)c3)cc2C1

Activity [4]: 46%
SMILES: O=C(O)C[C@@H]1COc2cc(OCc3cccc(-c4ccc5c(c4)CN(C(=O)c4ccccc4)CC5)c3)ccc21

EC50 [4]: 5400 nM
Activity [2]: 89.4%
SMILES: O=C(O)C[C@@H]1COc2cc(OCc3cccc(-c4cccc5c4CCN(Cc4ccccc4)C5)c3)ccc21

Activity [2]: 17.8%
SMILES: O=C(O)COc1ccc(OCc2cccc(-c3ccc4c(c3)CCN(Cc3ccccc3)C4)c2)cc1

Activity [2]: 7.8%
SMILES: CCN1CCc2c(cccc2-c2cccc(COc3ccc4c(c3)OC[C@H]4CC(=O)O)c2)C1

Activity [2]: 54.8%
SMILES: O=C(O)C[C@@H]1COc2cc(OCc3cccc(-c4cccc5c4CCN(CCc4ccccc4)C5)c3)ccc21

Activity [2]: 77%
SMILES: O=C(O)C[C@@H]1COc2cc(OCc3cccc(-c4ccc5c(c4)CN(CCc4ccccc4)C5)c3)ccc21

Activity [2]: 22.8%
SMILES: CC(C)(CC(=O)O)c1ccc(OCc2cccc(-c3ccc4c(c3)CN(Cc3ccccc3)CC4)c2)cc1

Activity [2]: 20.4%
SMILES: O=C(O)C[C@@H]1COc2cc(OCc3cccc(-c4ccc5c(c4)CN(C(=O)Cc4ccccc4)CC5)c3)ccc21

EC50 [4]: 4000 nM
Activity [2]: 85%
SMILES: O=C(O)C[C@@H]1COc2cc(OCc3cccc(-c4ccc5c(c4)CCN(CCc4ccccc4)C5)c3)ccc21

EC50 [4]: 1200 nM
inhibition at 5 µM [5]: 23.6%
inhibition at 5 µM [8]: 16.2%
inhibition at 5 µM [11]: 20.9%
inhibition at 5 µM [13]: 30.7%
Activity [2]: 136%
SMILES: Cl.O=C(O)C[C@@H]1COc2cc(OCc3cccc(-c4ccc5c(c4)CCN(Cc4ccccc4)C5)c3)ccc21
Activity [14]: 13.8%
Activity [6]: 49.9 mg/dL
Activity [7]: 196.2 mg/dL
Activity [10]: 150.2 mg/dL
Activity [12]: 2.9 ng/mL

EC50 [4]: 800 nM
Activity [2]: 90%
SMILES: CC(C)(CC(=O)O)c1ccc(OCc2cccc(-c3cccc4c3CCN(Cc3ccccc3)C4)c2)cc1

Activity [2]: 5%
SMILES: CC(=O)N1CCc2cc(-c3cccc(COc4ccc5c(c4)OC[C@H]5CC(=O)O)c3)ccc2C1

EC50 [4]: 3000 nM
Activity [2]: 89.8%
SMILES: O=C(O)C[C@@H]1COc2cc(OCc3cccc(-c4ccc5c(c4)CN(Cc4ccccc4)C5)c3)ccc21

EC50 [4]: 2200 nM
Activity [2]: 84.2%
SMILES: O=C(O)C[C@@H]1COc2cc(OCc3cccc(-c4cccc5c4CCN(C(=O)c4ccccc4)C5)c3)ccc21
